From patent US20110269628A1, “Pesticidal Mixtures” (priority 2009, published 2011)

Key:
[1] = system: Imidazolinone tolerant soybeans; test: Stomatal conductance gs (infrared gas analyzer), soybean pot experiment; assay type: in vivo; conditions: 1 DAA; application at BBCH 14; pyraclostrobin 0.3 L/ha (250 g/L), imazapyr 0.075 L/ha (480 g/L)
[2] = system: Imidazolinone tolerant soybeans; test: Chlorophyll content (SPAD chlorophyll-meter), soybean pot experiment; assay type: in vivo; conditions: 1 DAA; application at BBCH 14; pyraclostrobin 0.6 L/ha (250 g/L), imazapyr 0.3 L/ha (480 g/L)

Row | Compound | OE = observed efficacy (%), increase of stomatal conductance vs untreated control [1] [%] | SC = Stomatal Conductance (gs) [1] [mol m^−2s^−1] | Chlorophyll Content (SPAD) [2] | OE = observed efficacy (%), increase of chlorophyll content vs untreated control [2] [%]
1 | CC(C)C1(C)N=C(c2ncccc2C(=O)O)NC1=O (centres unmarked) [Imazapyr, imazapyr] | −3.1 | 0.380 | 26.5 | −1.5
2 | COC(=O)N(OC)c1ccccc1COc1ccn(-c2ccc(Cl)cc2)n1 [Pyraclostrobin, pyraclostrobin] | 7.4 | 0.421 | 27.6 | 2.6
